Test results published in patent publication US11246818B2, “Peptides and compositions for use in cosmetics” (LIPOTRUE, S.L., priority 2017, dated 2022).
Residues, ends and D or L forms follow the SMILES beside them.

Key:
[1] = test system: Primary human epidermal keratinocytes; assay: Protection against oxidative stress (reactive oxygen species) induced by hydrogen peroxide; format: cell-based; settings: all concentrations tested
Method: Columns from left to right in the x-axis of FIG. 4(A) correspond to: basal state (cells to which no treatment is applied), positive control, negative control of oxidation (sample treated with 1 mM ascorbic acid) and treatments with Ac-SEQ ID NO: 1-NH2 concentrations of 0.001 mg/ml, 0.005 mg/ml and 0.01 mg/ml, respectively. […] Columns from left to right in the x-axis of FIG. 3(B) correspond to: basal state (cells to which no treatment is applied), positive control, negative control (sample treated with 1 mM ascorbic acid) and treatments with Ac-SEQ ID NO: 2-NH2 concentrations of 0.001 mg/ml, 0.005 mg/ml, 0.01 mg/ml and 0.05 mg/ml, respectively.
Primary human epidermal keratinocytes were seeded in black 96 well-plates in the corresponding culture medium and, 48 hours later, treated with the different compounds analysed (Ac-SEQ ID NO: 1-NH2 or Ac-SEQ ID NO: 2-NH2) for 3 hours at 37° C. or with ascorbic acid as an antioxidant control. After incubation, cells were loaded with a fluorescence probe for 45 minutes and then H2O2 was added for 30 minutes.
Finally, fluorescence was determined at Excitation 485 nm/Emission 520 nm.

[2] = test system: Primary human epidermal keratinocytes; assay: Protection against glycation induced by heavy metals (Advanced Glycation End products, competitive ELISA); format: cell-based; settings: all concentrations tested (0.01, 0.05, 0.1 mg/ml), 48 hours
Method: Primary human epidermal keratinocytes were seeded in 96-well plates in standard culture medium and, 24 hours later, subjected to a simultaneous treatment with heavy metals (containing a mixture of Fe, Pb and Cr) and peptide Ac-SEQ ID NO: 1-NH2 for 48 hours. Levels of Advance Glycation End (AGE) products were measured by means of a competitive ELISA assay with absorbance at 450 nm.

[3] = test system: Primary human epidermal keratinocytes; assay: Protection against DNA oxidation induced by synthetic smoke (8-OHdG, competitive ELISA); format: cell-based; settings: synthetic smoke 48 h
Method: Primary human epidermal keratinocytes were seeded in 96-well plates in standard culture medium and, 24 hours later, subjected to a simultaneous treatment with synthetic smoke containing selected compounds from the particle phase (for example, cadmium and nicotine) and vapour phase (for example, formaldehyde (hereinafter, FA) and ethyl carbamate) of tobacco smoke and the analysed compound (Ac-SEQ ID NO: 1-NH2) for 48 h.
After treatment, cells were lysed and DNA oxidation on cell homogenates was analysed measuring levels of 8-OHdG by means of a competitive ELISA assay with absorbance at 450 nm.

HO-1 = HO-1 immunostaining on human skin explants
Method: The protection efficacy of peptide Ac-SEQ ID NO: 1-NH2 against pollution aggression on human living explants was assessed by observation of the general morphology, immunostaining of AhR and HO-1 (both are known markers of oxidative stress as they have been related to anti-oxidative response) (Esser C., Bargen I., Weighardt H., Haarmann-Stemmann T., Krutmann J., Functions of the aryl hydrocarbon receptor in the skin, Semin Immunopathol (2013) 35:677-691; Kohen R., Nyska A., Oxidation of Biological Systems: Oxidative Stress Phenomena, Antioxidants, Redox Reactions, and Methods for Their Quantification, Toxicologic Pathology (2002) vol 30, no 6, 620-650).
Briefly, human skin explants from a person were put in culture under controlled conditions. 21 skin explants of an average diameter of 11 mm (±1 mm) were prepared and kept in survival in BEM culture medium at 37° C. in a humid, 5% CO2 atmosphere. The explants were distributed in 5 batches: explant control (Time=0), control batch, explants treated with the above-mentioned peptide, explants treated with pollutant and explants treated with pollutant and with the above-mentioned peptide. A composition containing Ac-SEQ ID NO: 1-NH2 in accordance with Example 8 was prepared and it was topically applied on days 0, 1, 3 and 4. […] Finally, image analyses and quantification were performed using Cell^D software (Olympus, Tokyo, Japan).

CC(=O)N[C@@H](CC(=O)O)C(=O)N[C@@H](Cc1ccc(O)cc1)C(=O)N[C@@H](CCCCN)C(=O)N[C@H](C(N)=O)C(C)C [Ac-SEQ ID NO: 1-NH2, Ac-Asp-Tyr-Lys-Val-NH2] (Ac-DYKV-NH2)
activity against hydrogen peroxide induced reactive oxygen species compared with Ac-SEQ ID NO: 2-NH2 [1]: increased activity in all concentrations tested
quantity of advanced glycation end-products [2]: statistically significant decrease
protection of DNA oxidation ([3]; 0.1 mg/ml): almost complete inhibition of the effects of synthetic smoke
DNA oxidation (8-OHdG) ([3]; lower tested concentration (0.01 mg/ml)): slight decrease (non-statistically significant)
DNA oxidation (8-OHdG) ([3]; other two tested concentrations (0.05, 0.1 mg/ml)): higher, statistically significant, effect
decrease in HO-1 (epidermal surface occupied) (HO-1; composition of Example 8 applied topically, exposed to pollutants, versus pollutants without peptide): 23%
increase of levels of HO-1 (HO-1; peptide in a final formulation, without exposure to pollutants, versus untreated and unexposed explants): 69%
